From patent US10004773B2, “Plant compositions and methods and uses thereof for treating elevated glucocorticoid related disorders, and anxiety” (University of Ottawa, priority 2012, dated 2018)

System: nursery piglets
Assay: Feeding study in weaned nursery piglets
Format: in vivo, pig
Description: The test materials used in the study were the Souroubea gilgii and purified betulinic acid. The Souroubea gigli plant samples (labelled SS for Souroubea sp.) were harvested from the canals in Tortuguero, Costa Rica. The samples were chipped, dried and powdered. Samples were dried overnight in a commercial plant drier at 35° C. and ground to 1 mm mesh.
The objective of the study was to investigate the production performance and stress related responses in nursery piglets that were fed a supplemented of either dried Souroubea gilgii plant material (SS) or one of its active anxiolytic compounds, purified betulinic acid (BA). The following parameters were evaluated: (1) plasma levels of Acute Phase Proteins (APP) and cortisol, (2) behavioral and stress related aggressive interactions and injuries (aggressive pushing, number of fights and the duration of fights in seconds), (3) production performance parameters (average daily gain (ADG), feed intake, feed efficiency (kg feed/kg body weight gain)) and (4) health evaluation (incidence of disease, disease treatments and deaths).
The study included 300 piglets that were 21 days of age at the start of the experiment (day of weaning and first day of treatment). The piglets were treated at days 0 and 21 and monitored over a 39 day period. The pigs were 60 days of age at the end of the study. Pigs were randomly assigned to one of five treatment groups, with 60 pigs in each group: (1) Group A. untreated control, (2) Group B. 0.5 mg BA/kg body weight, (3) Group C. 1 mg BA/kg body weight, (4) Group D. 2 mg BA/kg body weight and (5) Group E. SS group, 500 mg ground SS leaves/kg body weight (BA concentration equivalent to 0.5 mg BA/kg body weight).
Blood samples from 8 pigs in each treatment group were drawn on days 0, 2, 7, 14, 21 and 39 for a total of 240 blood samples, to determine plasma APP and cortisol levels. The same pigs from each treatment group were used for each blood sample day. Pigs were also weighed and feed intake was measured on these days to calculate performance parameters.

C=C(C)[C@@H]1CC[C@]2(C(=O)O)CC[C@]3(C)[C@H](CC[C@@H]4[C@@]5(C)CC[C@H](O)C(C)(C)[C@@H]5CC[C@]43C)[C@@H]12 [BA, betulinic acid]
number of wounds (2 mg/kg (Group D)): appeared to reduce | aggressive behavior and extent of injuries (BA doses below 2 mg/kg): little effect | plasma cortisol levels (day 2, Group C 1 mg/kg BA, vs Groups A and B, p<0.01): significantly lower | plasma cortisol levels (day 2, Group D 2 mg/kg BA, vs Groups A and B, p<0.01): significantly lower | plasma cortisol levels (days 7 and 14, Group D 2 mg BA/kg, vs Group A, p<0.05): significantly lower | plasma cortisol levels (first 14 days post-weaning, 2 mg BA/kg): significantly reduced | dose required to reduce plasma cortisol in the first days after weaning (piglets): 1 mg BA/kg
